Experiments:
[1] = Oral absorption / pharmacokinetics of Compound (I) formulations in cynomolgus monkeys; assay type: in vivo; conditions: cyno monkeys
Procedure: An aqueous suspension of […] was prepared at 10% solid content. […] Six enteric coated tablets were encapsulated in a size #00 hard gelatin capsule for the cyno PK study. Each cyno monkey was dosed with 2 capsules (12 enteric coated tablets). […] The mean exposure is shown in FIG. 1 with error bars showing the standard deviation.

[2] = Dog pK study (Example 4), 20 mg dose; design: species or system dogs; conditions: in vivo, iv, 10 mg
[3] = Dog pK study (Example 5E), effect of sodium decanoate amount and number of tablets, 100 mg dose; design: species or system dogs; conditions: in vivo, iv, 10 mg
Procedure: Blood samples were withdrawn over a period of 72 hours. […] Error bars describe standard deviation. […] Decreasing the amount of sodium decanoate decreased PK exposure at 330 mg of sodium decanoate. […] Table 12 summarizes all of the PK data for all the formulations tested in Example 5.

[4] = 0.1 mg/kg IV (0.5 mg), reference

SMILES: CCCC[C@H]1C(=O)N(C)[C@@H](CCCC)C(=O)N[C@@H](CC(C)C)C(=O)N[C@H](C(=O)NCC(=O)N[C@@H](Cc2cn(CCOCCOCCCOCCCOCCOCCOCCOCCOCCOCCOCCOCCNC(=O)CC[C@H](NC(=O)CCCCCCCCCCCCCCCCC(=O)O)C(=O)O)nn2)C(=O)O)CSCC(=O)N[C@@H](Cc2ccc(O)cc2)C(=O)N(C)[C@@H](C)C(=O)N[C@@H](CC(N)=O)C(=O)N2CCC[C@H]2C(=O)N[C@@H](CN)C(=O)N[C@@H](CC(C)C)C(=O)N2C[C@H](O)C[C@H]2C(=O)N[C@@H](Cc2c[nH]c3ccccc23)C(=O)N[C@@H](CCN)C(=O)N[C@@H](Cc2cn(CC(=O)O)c3ccccc23)C(=O)N1C [Compound (I)]
- AUC0-24 h (nM · h) Mean ([1]; 0.1 mg/kg IV (0.5 mg)): 47.61351 µM·h
- AUCinf (nM · h) Mean ([1]; 0.1 mg/kg IV (0.5 mg)): 51.96595 µM·h
- Cmax ([1]; 0.1 mg/kg IV (0.5 mg)): 798 nM
- BA (%) Mean [1, 4]: 100.00%
- BA (%) using AUCInf Mean [1, 4]: 100.00%
- plasma concentration of Compound (I) over time ([1]; oral, 12 mg, formulated as in Example 1, 72 hours): good plasma concentration
- AUCinf (ng · h/mL) Mean [2]: 1198.53803 µg·h/mL
- Cmax (ng/mL) Mean [2]: 25466.29 ng/mL
- AUCinf (ng · h/mL) Mean [3]: 1198.53803 µg·h/mL
- Cmax (ng/mL) Mean [3]: 25466.29 ng/mL

— patent US20260263552A1, “PHARMACEUTICAL COMPOSITIONS FOR IMPROVING ORAL BIOAVAILABILITY” (priority 2023, published 2026)
